Assay results from publication PMC8201735 (BMC Pharmacology & Toxicology, 2021).
Read-outs that look alike come from different tables or passages of the source.

Columns and labels:
[1] = tested on: subjects with T2DM; assay: Adverse event monitoring, RE co-administered with metformin for 13 days; assay type: in vivo, human; details: for Tolerability of co-administration with metformin: RE 500 or 750 mg BID + metformin >=2000 mg/day, 13 days
Description: The study was comprised of three phases; run-in, randomization, and treatment. […] In treatment phase the patients were considered in two cohorts. […] The adverse events monitoring included recording of any adverse event (AE) and serious adverse event (SAE) reported or observed during the entire study and follow-up period. All the subjects were counseled to inform study staff of any AEs that occurred during the study. Any abnormal laboratory findings (e.g., clinical chemistry, hematology, and urinalysis) or other abnormal assessments (e.g., ECGs, vital signs, physical examination) that were judged by the investigator as clinically significant were recorded as AEs or SAE.

[2] = parameters: method as in PMID 25934577; details: repeat dosing PK; cited from earlier work
[3] = tested on: subjects with T2DM; assay: Oral glucose tolerance test (75 g): weighted mean plasma glucose and insulin; assay type: in vivo, human; details: Day -1 (baseline)
[4] = Plasma pharmacokinetics of remogliflozin etabonate and its metabolites during metformin treatment; assay type: in vivo, human; details: for AUC(0-t) / Cmax / Tmax: human, plasma, oral; for AUC(0-t): read-out: AUC (0-last), geometric mean (%CVb); for Cmax: read-out: Cmax, geometric mean (%CVb); for Tmax: read-out: tmax, median (range)
Description: PK analysis was conducted by […] (Chapel Hill, NC, USA), under the direction of Clinical Pharmacokinetics/Modelling and Simulation, GSK using the non-compartmental analysis Model 200 (for extra vascular administration) of WinNonlin Professional Edition version 4.1 (Pharsight Corporation, Mountain View, CA). […] Descriptive statistics were used to summarize baseline demographics, safety data, and pharmacokinetic parameters. Geometric mean and % CVb (between-subject coefficient of variation) were calculated for all pharmacokinetic parameters except tmax. Comparisons of placebo with each active dose of RE were assessed in terms of change from baseline in fasting plasma lactate acid using repeated measures analysis of covariance model. The model included terms for baseline measurement, visit, treatment and visit-by-treatment interaction. The same model was applied to change from baseline in weighted means of day-time, night-time and 0-24 h of blood pressures. Within group treatment comparison was performed using mixed model on log transformed Cmax and AUC (0-last).

[5] = tested on: subjects with T2DM; assay: Surveillance for lactic acidosis: fasting plasma lactic acid concentration; assay type: in vivo, human
Description: The samples for acidosis analysis were collected at screening (following an overnight fast and prior to morning dose), once during the run-in phase, at baseline (Day- 1), mornings (prior to first dose and breakfast) of Days 1, 2, 3, and 4 (inpatient) and Days 6, 8, and 10 (outpatient) and Days 13 and 14 (inpatient). Subjects were not allowed to do rigorous exercise or physical labor during the treatment phase of the study and instructed to limit exercise 12 h before sampling.
Descriptive statistics were used to summarize baseline demographics, safety data, and pharmacokinetic parameters. Geometric mean and % CVb (between-subject coefficient of variation) were calculated for all pharmacokinetic parameters except tmax. Comparisons of placebo with each active dose of RE were assessed in terms of change from baseline in fasting plasma lactate acid using repeated measures analysis of covariance model. The model included terms for baseline measurement, visit, treatment and visit-by-treatment interaction. The same model was applied to change from baseline in weighted means of day-time, night-time and 0–24 h of blood pressures. Within group treatment comparison was performed using mixed model on log transformed Cmax and AUC (0-last).

[6] = RE 750 mg BID + metformin, N = 17
[7] = 500 mg, Day 1, after RE 500 mg BID + metformin, N = 16
[8] = 500 mg, Day 13, after RE 500 mg BID + metformin, N = 15
[9] = 750 mg, Day 1, after RE 750 mg BID + metformin, N = 17
[10] = 750 mg, Day 13, after RE 750 mg BID + metformin, N = 16
[11] = Study Day 2, RE 750 mg BID + metformin
[12] = Study Day 6, RE 750 mg BID + metformin

Q: For `CCOC(=O)OC[C@H]1O[C@@H](Oc2nn(C(C)C)c(C)c2Cc2ccc(OC(C)C)cc2)[C@H](O)[C@@H](O)[C@@H]1O` [RE, remogliflozin etabonate], which Supraventricular tachycardia [1, 6] is on record?
A: The Supraventricular tachycardia was 0 N(%).

Q: And the Urinary tract infection [1, 6]?
A: Its Urinary tract infection is 0 N(%).

Q: And the Vomiting [1, 6]?
A: Its Vomiting is 1 (6%) N(%).

Q: What about the “Tolerability of co-administration with metformin” value [1] of the same compound?
A: The value was “generally well tolerated”.

Q: And the “Tolerability of co-administration with metformin” value ([1]; listed as remogliflozin etabonate)?
A: The value was “well tolerated”.

Q: And the “Increase in AUC on repeat dosing” value [2]?
A: Its value is 10%.

Q: And the “Increase in t1/2 on repeat dosing” value [2]?
A: Its value is 10%.

Q: And the “Weighted mean plasma insulin following OGTT, Mean (SD)” value ([3]; RE 500 mg + Metformin)?
A: Its value is 190.96 (100.420) pmol/L.

Q: And the “Weighted mean plasma insulin following OGTT, Mean (SD)” value ([3]; RE 750 mg + Metformin)?
A: The value was 191.52 (83.045) pmol/L.

Q: What about the “AUC(0-last) accumulation ratio Day 13 versus Day 1, point estimate (90% CI)” value ([4]; RE 500 mg + Metformin) of the same compound?
A: The value was 0.99 (0.857–1.15).

Q: What about the “AUC(0-last) accumulation ratio Day 13 versus Day 1, point estimate (90% CI)” value ([4]; RE 750 mg + Metformin) of the same compound?
A: Its value is 1.02 (0.861–1.21).

Q: What about the AUC(0-t) ([4]; 500 mg, Day 1, RE 500 mg BID + metformin, N = 16) of the same compound?
A: Its AUC(0-t) is 0.0709 µg·h/mL.

Q: What about the Cmax [4, 7] of the same compound?
A: The Cmax was 0.0648 µg/mL.

Q: And the Tmax [4, 7]?
A: Its Tmax is 37.8 min.

Q: And the AUC(0-t) ([4]; 500 mg, Day 13, RE 500 mg BID + metformin, N = 15)?
A: Its AUC(0-t) is 0.0735 µg·h/mL.

Q: And the Cmax [4, 8]?
A: The Cmax was 0.0533 µg/mL.

Q: What about the Tmax [4, 8] of the same compound?
A: Its Tmax is 30 min.

Q: And the AUC(0-t) ([4]; 750 mg, Day 1, RE 750 mg BID + metformin, N = 17)?
A: The AUC(0-t) was 0.121 µg·h/mL.

Q: What about the Cmax [4, 9] of the same compound?
A: The Cmax was 0.137 µg/mL.

Q: And the Tmax [4, 9]?
A: Its Tmax is 30 min.

Q: And the AUC(0-t) ([4]; 750 mg, Day 13, RE 750 mg BID + metformin, N = 16)?
A: The AUC(0-t) was 0.121 µg·h/mL.

Q: And the Cmax [4, 10]?
A: The Cmax was 0.101 µg/mL.

Q: And the Tmax [4, 10]?
A: Its Tmax is 28.8 min.

Q: And the “Fasting plasma lactic acid, maximum on-therapy absolute values, Mean (SD)” value ([5]; RE 500 mg BID + metformin)?
A: The value was 1.220 (0.2684) mmol/L.

Q: What about the “Fasting plasma lactic acid, maximum on-therapy change from baseline, Mean (SD)” value ([5]; RE 500 mg BID + metformin) of the same compound?
A: The value was 0.234 (0.3717) mmol/L.

Q: And the “Fasting plasma lactic acid, maximum on-therapy absolute values, Mean (SD)” value ([5]; RE 750 mg BID + metformin)?
A: The value was 1.508 (0.4389) mmol/L.

Q: And the “Fasting plasma lactic acid, maximum on-therapy change from baseline, Mean (SD)” value ([5]; RE 750 mg BID + metformin)?
A: The value was 0.249 (0.5934) mmol/L.

Q: What about the “Fasting plasma lactic acid change from baseline, Mean (SD)” value (shortened to “Fasting plasma lactic acid change … (SD)”) ([5]; Study Day 2, RE 500 mg BID + metformin) of the same compound?
A: The value was −0.07 (0.248) mmol/L.

Q: And the “Fasting plasma lactic acid change from baseline, Difference vs. placebo (95% CI), ANCOVA” value [5, 11]?
A: Its value is −0.246(− 0.445, − 0.047) mmol/L.

Q: What about the “Fasting plasma lactic acid change … (SD)” value [5, 11] of the same compound?
A: Its value is −0.17 (0.419) mmol/L.

Q: And the “Fasting plasma lactic acid change from baseline, Difference vs. placebo (95% CI), ANCOVA” value ([5]; Study Day 6, RE 500 mg BID + metformin)?
A: Its value is −0.380 (− 0.603, − 0.157) mmol/L.

Q: And the “Fasting plasma lactic acid change … (SD)” value ([5]; Study Day 6, RE 500 mg BID + metformin, n = 15)?
A: Its value is −0.26 (0.310) mmol/L.

Q: What about the “Fasting plasma lactic acid change from baseline, Difference vs. placebo (95% CI), ANCOVA” value [5, 12] of the same compound?
A: Its value is −0.254(− 0.472, − 0.036) mmol/L.

Q: What about the “Fasting plasma lactic acid change … (SD)” value [5, 12] of the same compound?
A: The value was −0.26 (0.538) mmol/L.

Q: What about the “Fasting plasma lactic acid change from baseline, Difference vs. placebo (95% CI), ANCOVA” value ([5]; Study Day 13, RE 500 mg BID + metformin) of the same compound?
A: The value was −0.191 (− 0.414, 0.031) mmol/L.

Q: What about the “Fasting plasma lactic acid change … (SD)” value ([5]; Study Day 13, RE 500 mg BID + metformin, n = 15) of the same compound?
A: The value was −0.15 (0.485) mmol/L.

Q: What about the “Fasting plasma lactic acid change from baseline, Difference vs. placebo (95% CI), ANCOVA” value ([5]; Study Day 13, RE 750 mg BID + metformin) of the same compound?
A: The value was −0.255 (− 0.475, − 0.034) mmol/L.

Q: And the “Fasting plasma lactic acid change … (SD)” value ([5]; Study Day 13, RE 750 mg BID + metformin, n = 16)?
A: The value was −0.33 (0.398) mmol/L.

Q: What about the “Subjects with lactic acid greater than the upper limits of normal (ULN) at any time” value ([5]; receiving RE, not sustained, minimally above ULN) of the same compound?
A: Its value is “one”.
